Legend:
[1] = test system: HT29 cells; test: Tumoursphere formation assay (CSC frequency analysis in vitro); assay type: cell-based, human; settings: HT29, 96-well, lower seeding dose (10 or 5 cells/well), versus PBS control
Method: Cells were harvested at 80% confluence with trypsin digestion and resuspended as single cells in DMEM/F12 serum-free media following centrifugation (1000×g for 5 min). Cells were plated into 96-well ultralow attachment plates at a density of 5, 10, 50, 100, 500, and 1000 cells per well, or at 4000 cells /well in 6-well ultralow attachment plates for tumoursphere formation. Three experiment groups were used: tumoursphere medium control, free DOX treatment (1, 1.5 and 2 μM) and aptamer-Dox treatment (1, 1.5 and 2 μM equivalent to the same concentration of free DOX). After incubation for 24 h at 37° C. supernatant was removed and replaced with equal volume of fresh CSC medium. A tumoursphere was defined as a cell aggregate with a diameter of over 50 μm with well defined borders. Tumoursphere formation frequency and size were recorded 3 days after seeding. The frequency of CSCs was calculated using the ELDA website (http://bioinf.wehi.edu.au/software/elda/index.html. The tumoursphere formation frequency in 6-well incubation was calculated according to the formula F=Numbers of forming tumourspheres/Number of single cells plated (F is the tumoursphere formation frequency).

[2] = test system: HT29 cells; test: Internalisation of aptamer-Dox conjugate by confocal microscopy; assay type: cell-based, human
Method: Both HT29 and HEK293T were seeded at […] cells per well in 8-chamber slide for 24 h in preparation for confocal microscopy. Cells were incubated with blocking buffer (PBS with 10% FCS, 1 mg/mL BSA, 0.1 mg/mL tRNA) for 20 min, followed by washing twice with washing buffer (PBS containing 5% FBS, 2.5 mM MgCl2, and 5 mM NaCl) prior to incubation with 200 nM aptamer, negative-control aptamer, aptamer-Dox conjugate or […] Bisbenzimide Hoechst 33342 (3 mg/ml) (Sigma)) was added to the cells during the final 15 min of incubation. The aptamer solution was removed and the cells were washed three times for 5 min each in PBS prior to visualisation using a FluoView FV10i laser scanning confocal microscope (Olympus).

[3] = biological target: T1, CD133 expressed on HT29 cells (Homo sapiens, UniProt O43490); test: Equilibrium dissociation constant by flow cytometry on CD133 positive HT29 cells; assay type: binding; settings: Cy5 labelled
T1 construct: host or cells: HT-29 human colorectal cancer cells
T1 sequence (O43490 20-865): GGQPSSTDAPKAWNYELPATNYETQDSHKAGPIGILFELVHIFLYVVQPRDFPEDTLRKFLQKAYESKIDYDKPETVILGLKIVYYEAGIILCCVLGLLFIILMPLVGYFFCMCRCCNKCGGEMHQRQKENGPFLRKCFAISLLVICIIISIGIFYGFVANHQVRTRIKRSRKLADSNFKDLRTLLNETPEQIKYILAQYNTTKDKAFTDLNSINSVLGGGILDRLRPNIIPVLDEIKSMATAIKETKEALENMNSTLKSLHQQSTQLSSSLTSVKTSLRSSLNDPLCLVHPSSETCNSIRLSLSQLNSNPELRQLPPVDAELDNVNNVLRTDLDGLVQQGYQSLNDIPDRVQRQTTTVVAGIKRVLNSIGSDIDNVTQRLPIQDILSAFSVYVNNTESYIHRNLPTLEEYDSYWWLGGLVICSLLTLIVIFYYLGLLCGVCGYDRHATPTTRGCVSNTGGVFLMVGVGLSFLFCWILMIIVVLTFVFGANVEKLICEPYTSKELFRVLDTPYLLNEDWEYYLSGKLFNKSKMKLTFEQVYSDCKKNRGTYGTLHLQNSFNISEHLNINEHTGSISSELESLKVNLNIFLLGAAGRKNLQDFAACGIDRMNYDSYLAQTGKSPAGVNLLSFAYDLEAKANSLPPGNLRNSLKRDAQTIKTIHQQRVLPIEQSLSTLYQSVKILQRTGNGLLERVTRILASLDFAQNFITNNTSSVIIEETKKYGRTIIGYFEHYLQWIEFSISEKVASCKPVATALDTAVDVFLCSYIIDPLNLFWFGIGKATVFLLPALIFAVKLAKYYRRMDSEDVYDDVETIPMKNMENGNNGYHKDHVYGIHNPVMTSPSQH
Method: (§1) To minimize the non-specific binding, 1×10^5 HT29 or HEK293T cells were first incubated with blocking buffer (PBS with 10% FCS, 1% BSA and 1% tRNA) for 20 min. Cells were then washed twice with washing buffer (PBS containing 5% FBS and 2.5 mM MgCl2) and incubated on ice for 1 h with either CD133 aptamer, negative-control aptamer, CD133 aptamer-Dox conjugate or negative-control aptamer-Dox conjugate, all labelled with Cy5 in conjugation buffer (50 mM NaCl, and 2.5 mM MgCl2).
Prior to flow cytometric analysis, cells were again washed twice with washing buffer and then suspended in 150 μl washing buffer. Data was then collected using the flow cytometer (FACS CANTOII, Becton Dickerson) to measure the fluorescence intensity of the aptamer and the binding affinity was determined by normalising the fluorescence intensity with the fluorescent background from that of the negative-control aptamer and then derived using Graph Pad Prism software.

[4] = biological target: T2, CD133 (prominin-1) (UniProt O43490 O43490:20-865); test: flow; HT29 cells, 50 mM NaCl, 2.5 mM MgCl2, on ice 1 h; CD133-negative HEK293T gave KD >1000 nM; settings: tags: native CD133 on HT-29 colorectal cancer cells (ATCC); label: Cy5; hairpin with 10-bp DNA stem
T2 sequence: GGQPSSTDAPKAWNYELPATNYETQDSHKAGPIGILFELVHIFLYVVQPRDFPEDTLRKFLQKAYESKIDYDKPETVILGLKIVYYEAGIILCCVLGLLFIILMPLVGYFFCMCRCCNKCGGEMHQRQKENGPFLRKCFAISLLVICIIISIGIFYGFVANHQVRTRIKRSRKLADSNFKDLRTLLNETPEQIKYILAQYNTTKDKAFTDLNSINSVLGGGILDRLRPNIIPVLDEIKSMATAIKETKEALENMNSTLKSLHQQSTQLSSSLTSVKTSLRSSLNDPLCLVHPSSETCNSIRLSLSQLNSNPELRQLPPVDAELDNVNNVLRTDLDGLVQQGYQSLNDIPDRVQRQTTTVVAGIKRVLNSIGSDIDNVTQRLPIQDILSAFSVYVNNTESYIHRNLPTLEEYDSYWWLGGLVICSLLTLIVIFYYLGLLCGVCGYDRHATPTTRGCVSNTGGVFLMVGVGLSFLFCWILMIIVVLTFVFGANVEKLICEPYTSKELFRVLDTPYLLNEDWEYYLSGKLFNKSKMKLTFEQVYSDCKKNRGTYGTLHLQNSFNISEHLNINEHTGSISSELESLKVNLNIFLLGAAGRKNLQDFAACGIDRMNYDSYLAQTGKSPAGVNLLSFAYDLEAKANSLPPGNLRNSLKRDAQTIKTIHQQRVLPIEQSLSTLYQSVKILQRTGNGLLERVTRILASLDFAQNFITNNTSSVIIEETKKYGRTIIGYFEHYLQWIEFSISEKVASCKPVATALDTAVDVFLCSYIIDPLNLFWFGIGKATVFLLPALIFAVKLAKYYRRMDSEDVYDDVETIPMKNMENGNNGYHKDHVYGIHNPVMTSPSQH
Method: as §1, with “Determination of the Equilibrium Dissociation Between the Aptamer-Dox Conjugate and its Target Cells To” for “To”
(§2) To determine whether the conjugation of DOX impedes binding affinity and specificity of the aptamer to CD133 the fluorescently labelled Cy5 aptamer-Dox conjugate was incubated with HT29 colorectal cancer cells and the equilibrium dissociation constant (K_D) was determined via flow cytometric analysis (FIG. 6).
Two cell lines, HT29 and HEK293T, were chosen for the study. […] To ascertain that CD133 aptamer binds to CD133 via specific molecular interaction rather than a non-specific binding between a nucleic acid and CD133, the experiments were repeated with a negative control aptamer-Dox conjugate (FIG. 6B). This negative control aptamer has the identical nucleic acid sequence as the positive aptamer with the exception of a 2'-O-methyl modification instead of a 2'-fluoro chemical modification.

[5] = biological target: T2, CD133 (prominin-1); test: flow; HT29 cells, 50 mM NaCl, 2.5 mM MgCl2, on ice 1 h; settings: tags: native CD133 on HT-29 colorectal cancer cells (ATCC); label: Cy5; hairpin with 10-bp DNA stem
Method: as §1, with “Determination of the Equilibrium Dissociation Between the Aptamer-Dox Conjugate and its Target Cells To” for “To”
as §2

COc1cccc2c1C(=O)c1c(O)c3c(c(O)c1C2=O)C[C@@](O)(C(=O)CO)C[C@@H]3O[C@H]1C[C@H](N)[C@H](O)[C@H](C)O1 [free DOX, doxorubicin]
frequency of tumoursphere formation [1]: no significant decrease

5′-mCGmCGmCGmCmCGmCA(2′fC)G(2′-fU)A(2′fU)A(2′fC)(2′fU)A(2′fU)GmCGGmCGmCGmCG-(inv dT)-3′ (SEQ ID NO:5) (CGCGCGCCGCACGUAUACUAUGCGGCGCGCGT; 2'-F, 5-methyl-dC modifications; 3' inverted dT; a synthetic aptamer against CD133; modified_base (1)..(1) 5-methyl deoxycytidine; modified_base (3)..(3) 5-methyl deoxycytidine; modified_base (5)..(5) 5-methyl deoxycytidine; modified_base (7)..(8) 5-methyl deoxycytidine; modified_base (10)..(10) 5-methyl deoxycytidine; modified_base (12)..(12) 2′-fluoro 5-methyl deoxycytidine; modified_base (14)..(14) 2′-fluoro deoxyuridine; modified_base (16)..) [CD133 aptamer, hybrid RNA/DNA CD133 aptamer; RNA stem replaced with a 10-bp DNA stem containing 5′methyl-dC]
internalisation (Cy5 aptamer) [2]: successfully internalised
Kd [3]: 84.8 nM

B1: CD133 aptamer-Dox conjugate (mixed)
RNA: CGCGCGCCGCACGUAUACUAUGCGGCGCGCG
modifications: DNA stem with 5-methyl-dC; 2'-F C and U in RNA loop; 3' inverted dT; doxorubicin intercalated in stem
Kd [4]: 23.9 nM

B2: CD133 RNA/DNA hybrid aptamer, unconjugated (mixed)
RNA: CGCGCGCCGCACGUAUACUAUGCGGCGCGCG
modifications: DNA stem with 5-methyl-dC (all stem C except as printed); 2'-F C and U in RNA loop ACGUAUACUAU; 3' inverted dT
Kd [5]: 84.8 nM
